This note sets out measurements from BindingDB's records for doi:10.1021/jm970140s (Merck Research Laboratories, 1997).

This test concerns the target Vitamin K-dependent protein C (Homo sapiens) (UniProt P04070). Put plainly: Inhibitory activity against human serine protease (act protein C )(7.5*10e6*).

Chain of Vitamin K-dependent protein C (Homo sapiens) (P04070 whole entry, looked up): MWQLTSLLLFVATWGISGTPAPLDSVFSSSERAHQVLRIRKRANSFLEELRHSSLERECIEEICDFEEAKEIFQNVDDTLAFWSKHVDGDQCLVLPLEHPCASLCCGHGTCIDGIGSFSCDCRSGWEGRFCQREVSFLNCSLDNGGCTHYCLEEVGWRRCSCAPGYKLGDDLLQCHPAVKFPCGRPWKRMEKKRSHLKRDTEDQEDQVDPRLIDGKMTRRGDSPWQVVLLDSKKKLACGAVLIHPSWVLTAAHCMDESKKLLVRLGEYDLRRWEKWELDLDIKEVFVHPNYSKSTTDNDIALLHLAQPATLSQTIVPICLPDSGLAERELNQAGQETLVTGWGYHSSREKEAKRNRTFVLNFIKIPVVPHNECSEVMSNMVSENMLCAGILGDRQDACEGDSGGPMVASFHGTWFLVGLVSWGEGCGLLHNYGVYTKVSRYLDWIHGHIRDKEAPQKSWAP

With `NC1CCC(CNC(=O)[C@@H]2CCCN2C(=O)[C@H](N)C(C2CCCCC2)C2CCCCC2)CC1` (stereo partly specified) [1-(2-Amino-3,3-dicyclohexyl-propionyl)-pyrrolidine-2-carboxylic acid (4-amino-cyclohexylmethyl)-amide], the affinity corresponds to a Ki of 417 µM.

The term Ki denotes the equilibrium dissociation constant of an inhibitor or competing ligand from its target. The low end stands for a stronger hold on the target, the high end for a looser hold on the target.
